Experimental findings from ChEMBL document CHEMBL5154859, “Targeting the Aryl Hydrocarbon Receptor with Microbial Metabolite Mimics Alleviates Experimental Colitis in Mice” (J Med Chem, 2022) are described below.

The target in data set [1] is T1, AhR (aryl hydrocarbon receptor) (Homo sapiens, UniProt P35869).
T1 sequence (P35869 whole entry): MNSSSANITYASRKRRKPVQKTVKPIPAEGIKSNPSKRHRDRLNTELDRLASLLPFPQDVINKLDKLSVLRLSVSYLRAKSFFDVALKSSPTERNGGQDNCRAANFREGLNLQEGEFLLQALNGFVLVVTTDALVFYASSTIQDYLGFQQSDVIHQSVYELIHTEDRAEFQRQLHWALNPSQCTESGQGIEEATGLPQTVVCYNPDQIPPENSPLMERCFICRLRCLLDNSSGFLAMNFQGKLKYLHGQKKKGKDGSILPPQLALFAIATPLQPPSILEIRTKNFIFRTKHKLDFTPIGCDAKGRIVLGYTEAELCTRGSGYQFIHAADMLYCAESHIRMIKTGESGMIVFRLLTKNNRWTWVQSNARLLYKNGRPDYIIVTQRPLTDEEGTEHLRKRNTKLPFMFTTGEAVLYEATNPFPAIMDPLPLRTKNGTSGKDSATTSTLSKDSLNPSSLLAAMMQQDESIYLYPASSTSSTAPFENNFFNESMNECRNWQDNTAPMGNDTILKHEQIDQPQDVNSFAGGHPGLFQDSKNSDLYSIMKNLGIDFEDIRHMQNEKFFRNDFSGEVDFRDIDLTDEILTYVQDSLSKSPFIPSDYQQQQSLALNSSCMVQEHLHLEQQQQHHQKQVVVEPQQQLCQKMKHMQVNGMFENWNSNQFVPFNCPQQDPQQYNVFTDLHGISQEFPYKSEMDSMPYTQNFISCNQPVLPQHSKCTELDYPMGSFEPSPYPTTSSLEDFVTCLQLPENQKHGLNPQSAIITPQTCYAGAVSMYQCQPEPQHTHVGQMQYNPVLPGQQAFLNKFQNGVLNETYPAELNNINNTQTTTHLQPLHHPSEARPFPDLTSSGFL
Description: Agonist activity at AhR (unknown origin) transfected in human AZ-AHR reporter cells derived from human HepG2 cells assessed as relative efficacy incubated for 4 hrs by luciferase reporter gene assay relative to control. The class given is cell-based. The settings on record: read-out: Efficacy.

Data set [2] concerns the target T2, Aryl hydrocarbon receptor (Mus musculus, UniProt P30561).
T2 sequence (P30561 whole entry): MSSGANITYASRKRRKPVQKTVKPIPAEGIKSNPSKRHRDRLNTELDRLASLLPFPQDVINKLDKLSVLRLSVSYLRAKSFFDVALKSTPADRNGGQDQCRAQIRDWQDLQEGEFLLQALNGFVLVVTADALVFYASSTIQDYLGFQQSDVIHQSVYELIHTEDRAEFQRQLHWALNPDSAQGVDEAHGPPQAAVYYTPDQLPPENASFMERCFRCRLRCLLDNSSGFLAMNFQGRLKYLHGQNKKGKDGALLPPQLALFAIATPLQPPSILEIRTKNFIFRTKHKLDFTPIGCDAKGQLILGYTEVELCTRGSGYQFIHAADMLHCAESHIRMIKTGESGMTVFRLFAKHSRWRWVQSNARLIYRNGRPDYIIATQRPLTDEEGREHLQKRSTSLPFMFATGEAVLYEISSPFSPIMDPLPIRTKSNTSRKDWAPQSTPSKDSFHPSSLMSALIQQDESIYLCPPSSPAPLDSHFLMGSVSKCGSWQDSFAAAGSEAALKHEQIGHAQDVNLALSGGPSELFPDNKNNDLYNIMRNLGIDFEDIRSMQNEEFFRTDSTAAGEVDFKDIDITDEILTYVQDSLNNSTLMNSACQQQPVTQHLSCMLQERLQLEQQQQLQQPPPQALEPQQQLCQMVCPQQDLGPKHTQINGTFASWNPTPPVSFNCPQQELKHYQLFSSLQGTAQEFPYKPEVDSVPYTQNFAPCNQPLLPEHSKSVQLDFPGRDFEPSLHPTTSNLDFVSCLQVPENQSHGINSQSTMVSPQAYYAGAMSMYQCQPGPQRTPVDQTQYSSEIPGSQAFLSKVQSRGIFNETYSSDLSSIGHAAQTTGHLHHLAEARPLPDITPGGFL
Put plainly: Agonist activity at AhR in mouse Hepa2Dluc cells. The class given is cell-based.

Data set [3] addresses T2, Aryl hydrocarbon receptor. Description: Displacement of [3H]TCDD from mouse AhR expressed in mouse Hepa1c1c7 cells cytosol incubated for 2 hrs by competitive radioligand binding assay. The data set is classed as subcellular. (In general: In a radioligand displacement assay an active substance lowers the binding of a labelled ligand.)
The target in data set [4] is T3, Aryl hydrocarbon receptor (Homo sapiens, UniProt P35869).
T3 sequence (P35869 whole entry): T1 sequence (P35869 whole entry)
Put plainly: Agonist activity at AhR in human AZ-AHR reporter cell derived from human HepG2 cells assessed as increase in luciferase activity at 1 uM measured after 8 to 24 hrs. The class given is cell-based. As to conditions: TDE = time-dependent effect, time 8-24 hrs; call rule not given here.

Data set [5] is described as follows: Metabolic stability in mouse plasma assessed as half life by LC/MS analysis. The class given is ADME, cell-free.
The target in data set [6] is T3, Aryl hydrocarbon receptor. Description: Agonist activity at AhR (unknown origin) transfected in human AZ-AHR reporter cells derived from human HepG2 cells incubated for 4 hrs by luciferase reporter gene assay. The data set is classed as cell-based. As to conditions: for Activity: human, az-ahr, 4 h, DDE = dose-dependent effect. (In general: A reporter such as luciferase makes a cellular process visible.)

Data set [7] has as its target T3, Aryl hydrocarbon receptor. Description: Agonist activity at AhR in human LS180 cells assessed as binding of AhR to CYP1A1 promoter gene at 1 uM incubated for 90 mins by chromatin immunoprecipitation assay. The data set is classed as cell-based. As to conditions: ls180, 1.5 h.
The target of data set [8] is T3, Aryl hydrocarbon receptor. Description: Agonist activity at AhR in human LS180 cells assessed as induction of nuclear translocation at 1 uM incubated for 90 mins by DAPI staining based confocal fluorescence microscopic analysis. The data set is classed as cell-based. As to conditions: ls180, 1.5 h.
Data set [9] deals with T3, Aryl hydrocarbon receptor. Put plainly: Agonist activity at AhR in human LS180 cell lysates assessed as induction of AhR-ARNT heterodimerization at 1 uM incubated for 90 mins by co-immunoprecipitation assay. The data set is classed as subcellular. The settings on record: ls180, 1.5 h.
Data set [10] is described as follows: Stability in cell-free culture media assessed as parent compound remaining at 1 uM incubated for 12 hrs in presence of serum by LC/MS analysis. The class given is physicochemical. As to conditions: cell-free culture media with serum, read-out: Stability.
For data set [11], the target named is T4, Nuclear receptor subfamily 1 group I member 2 (Homo sapiens, UniProt O75469).
T4 sequence (O75469 whole entry): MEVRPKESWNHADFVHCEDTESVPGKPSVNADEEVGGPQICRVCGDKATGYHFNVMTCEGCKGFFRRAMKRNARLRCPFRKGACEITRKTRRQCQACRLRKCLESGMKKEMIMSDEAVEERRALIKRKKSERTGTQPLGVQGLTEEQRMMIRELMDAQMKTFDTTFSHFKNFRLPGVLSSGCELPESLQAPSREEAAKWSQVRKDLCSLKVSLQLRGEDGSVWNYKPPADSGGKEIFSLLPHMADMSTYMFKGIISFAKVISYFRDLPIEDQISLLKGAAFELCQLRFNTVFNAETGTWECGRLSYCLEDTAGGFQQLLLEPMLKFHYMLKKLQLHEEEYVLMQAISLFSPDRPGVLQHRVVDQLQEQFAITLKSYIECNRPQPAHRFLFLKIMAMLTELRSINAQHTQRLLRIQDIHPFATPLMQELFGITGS
Description: Displacement of fluorescence labeled ligand from human PXR ligand binding domain by Lanthascreen TR-FRET assay.

The target in data set [12] is T4, Nuclear receptor subfamily 1 group I member 2. Put plainly: Agonist activity at human PXR transfected in human LS180 cells cotransfected with luciferase reporter plasmid p2A4-Luc assessed as transcriptional activity incubated for 24 hrs by luciferase reporter assay. The data set is classed as cell-based.

For `COC(=O)c1csc(C(=O)c2c[nH]c3ccccc23)n1`, the Emax at 4 h in data set [1] was 131%. Moreover, the concentration giving a half-maximal response (EC50) (usually the concentration at which the effect is half-maximal) in data set [2] turned out to be 10 nM. Moreover, in [3], the Ki (usually the dissociation constant of the complex between target and ligand, obtained from inhibition or displacement) is 10 nM. The Activity result in data set [4] is “Tde”. The half-life (in general, how long it takes for the measured level to halve) in data set [5] was found to be 44 min.
Turning to `C=CCn1cc(C(=O)c2nccs2)c2ccccc21`, the Emax at 4 h in data set [1] was 63.9%. In data set [6], the Activity result is “Dde”.
For `COc1cc(Cn2cc(C(=O)c3nccs3)c3ccccc32)cc(OC)c1`, in [1], the Emax at 4 h came to 57%. In addition, the Activity result in [6] is listed as “Dde”.
Regarding `COc1ccc(Cn2cc(C(=O)c3nccs3)c3ccccc32)cc1`, in data set [1], the Emax at 4 h turned out to be 133%. In addition, in data set [3], the affinity, expressed as Ki, was 800 nM. The Activity entry is recorded as “Active” in data set [7], “Tde” in data set [4], “Active” in [8] and “Active” in data set [9]. Besides, in [6], the response was half-maximal at 110 nM (EC50).
With `O=C(c1nccs1)c1cn(C(=O)c2ccccc2)c2ccccc12`, in data set [1], the Emax at 4 h worked out at 81.4%. For the same compound, in [6], the Activity entry is “Dde”.
As for `Cn1cc(C(=O)c2nccs2)c2ccccc21`, the Emax at 4 h in data set [1] worked out at 62.9%. For the same compound, the Activity result in data set [6] is listed as “Dde”.
On to `CC(=O)n1cc(C(=O)c2nccs2)c2ccccc21`, for which, in data set [1], the Emax at 4 h came out at 106%. In data set [6], the Activity entry was “Dde”.
With `CNC(=O)c1csc(C(=O)c2c[nH]c3ccccc23)n1`, the remaining at 12 h, 1 µM in data set [10] amounted to 5%. Besides, the IC50 (usually the concentration that gives 50% inhibition) in data set [11] amounted to 32100 nM. Besides, the EC50 in data set [12] was 12000 nM.
